Experimental data from article PMC2912498 (Cancer research, 2010).
pIC50: −log10 of the molar value. Like-named read-outs stand apart in the source and are kept apart here.

Legend:
[1] = tested on: GSK-3 dependent Tau phosphorylation; format: cell-based, human
[2] = tested on: HCT116 (oncogenic β-catenin); format: cell-based, human; details: read-out: HCT116 (oncogenic β-catenin) GI50; 72h
Xenopus laevis embryos = format: in vivo; details: added at the 4-16 cell stage
Zebrafish embryos = format: in vivo; details: added at the 16-cell stage
HT29 (APC mutant) = format: cell-based, human; details: read-out: HT29 (APC mutant) GI50; 72h
β-catenin [3] = format: cell-based, mouse
[4] = tested on: U2OS GFP-β-catenin human osteosarcoma cells; format: cell-based
CCD841Co (Control) = format: cell-based, human; details: read-out: CCD841Co (Control) GI50; 96h; >> = no growth inhibition at the highest concentration tested
LEF-1 mRNA = format: cell-based, human
SW480 (APC mutant) = format: cell-based, human; details: read-out: SW480 (APC mutant) GI50; 72h
[5] = tested on: TCF-dependent transcription; format: cell-based, human
PP2A = format: biochemical
[6] = tested on: TCF-dependent transcription; format: cell-based, human; details: read-out: Reporter IC50; 7dF3 reporter activity
SNU475 (Axin mutant) = format: cell-based, human; details: read-out: SNU475 (Axin mutant) GI50; 96h
recombinant GSK3 = format: biochemical
[7] = tested on: HCT116 human colon cancer cell; format: cell-based
survivin promoter = format: cell-based, human
[8] = tested on: TCF-dependent transcription; format: cell-based, human; remark: listed apart in the source
free β-catenin [9] = format: cell-based, human; details: SW480 cells
Tyrosine Phosphatase = format: biochemical
free β-catenin [10] = format: cell-based, human
c-myc promoter = format: cell-based, human
PP1 = format: biochemical
β-catenin [11] = format: cell-based, mouse; remark: listed apart in the source

6-bromoindirubin-3′-oxime [BIO, reference compound]
GSK-3 dependent Tau phosphorylation on Thr-181 ([1]; HEK293): reduce GSK-3 dependent Tau phosphorylation on Thr-181

CCT031374
GI50 [2]: 13.9 µM
effect on Xenopus embryo development (Xenopus laevis embryos): did not show clear responses
effect on Zebrafish embryo development (Zebrafish embryos): did not show clear responses
GI50 (HT29 (APC mutant)): 11.5 µM
time to increased β-catenin degradation (pulse chase) (β-catenin [3]): ≤ 10 min
formation of GFP-β-catenin aggregates [4]: induced formation of GFP-β-catenin aggregates
GI50 (CCD841Co (Control)): > 44 µM
endogenous LEF-1 mRNA levels (LEF-1 mRNA): showed activity against endogenous LEF-1 mRNA levels
reversal of the BIO block of Tau phosphorylation ([1]; HEK293, BIO plus 20μM CCT031374): largely failed to reduce the BIO block of Tau phosphorylation
GI50 (SW480 (APC mutant)): 13.2 µM
TCF-dependent transcription induced by stabilized β-catenin (N-terminal deletion of 89 amino acids) [5]: blocked TCF-dependent transcription
PP2A enzyme activity (PP2A): no activity
pIC50 [6]: 5.21
GI50 (SNU475 (Axin mutant)): 9.6 µM
inhibition of recombinant GSK3 (recombinant GSK3): did not inhibit
apoptosis shown by caspase 3 activity [7]: inducing apoptosis
caspase activity relative to the other compounds [7]: almost two times more caspase activity than the other compounds
activity against survivin promoter luciferase reporter (survivin promoter): showed activity
TCF-dependent transcription (Topflash) [8]: reduced TCF-dependent transcription
free β-catenin levels (free β-catenin [9]): not altered
Tyrosine Phosphatase enzyme activity (Tyrosine Phosphatase): no activity
free β-catenin levels (free β-catenin [10]): blocked free β-catenin levels
activity against c-myc promoter luciferase reporter (c-myc promoter): showed activity
PP1 enzyme activity (PP1): no activity
BIO-induced accumulation / levels of β-catenin (β-catenin [11]): prevented BIO-induced accumulation of β-catenin
degradation of endogenous wild-type β-catenin stabilized by BIO (β-catenin [11]): increased the degradation
degradation of β-catenin stabilized by Wnt-3A and LiCl (β-catenin [11]): resistant to degradation
degradation of β-catenin stabilized with MG132 (β-catenin [11]): not degraded
nuclear and cytosolic β-catenin pools (β-catenin [11]): reduction in both nuclear and cytosolic β-catenin pools
time to reduce levels of BIO-stabilized β-catenin (β-catenin [11]): ≤ 60 min
β-catenin N-terminal phosphorylation (β-catenin [11]): did not increase β-catenin N-terminal phosphorylation
β-catenin degradation products characteristic of calpain-induced proteolysis (β-catenin [11]): failed to induce β-catenin degradation products
